A value given as a limit tells only on which side of the number the result lay.

This assay addresses T1, α5β2γ2 subtype GABAAR (Homo sapiens, UniProt P18507+P31644).
T1 construct: expressed in transfected cells
T1 sequence (P31644 32-462): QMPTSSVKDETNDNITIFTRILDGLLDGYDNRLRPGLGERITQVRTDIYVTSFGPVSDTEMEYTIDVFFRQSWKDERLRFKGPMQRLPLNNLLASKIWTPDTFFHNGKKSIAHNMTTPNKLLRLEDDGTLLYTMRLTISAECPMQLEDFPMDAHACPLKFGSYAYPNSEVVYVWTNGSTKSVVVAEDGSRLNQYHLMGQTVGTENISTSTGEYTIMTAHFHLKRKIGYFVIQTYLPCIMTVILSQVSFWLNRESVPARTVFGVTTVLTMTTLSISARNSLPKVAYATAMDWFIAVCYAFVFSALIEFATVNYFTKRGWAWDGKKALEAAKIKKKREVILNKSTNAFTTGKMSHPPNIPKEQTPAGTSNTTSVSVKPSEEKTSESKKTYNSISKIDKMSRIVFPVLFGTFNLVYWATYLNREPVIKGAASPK
T1 sequence (P47870 25-512 partner limits assumed): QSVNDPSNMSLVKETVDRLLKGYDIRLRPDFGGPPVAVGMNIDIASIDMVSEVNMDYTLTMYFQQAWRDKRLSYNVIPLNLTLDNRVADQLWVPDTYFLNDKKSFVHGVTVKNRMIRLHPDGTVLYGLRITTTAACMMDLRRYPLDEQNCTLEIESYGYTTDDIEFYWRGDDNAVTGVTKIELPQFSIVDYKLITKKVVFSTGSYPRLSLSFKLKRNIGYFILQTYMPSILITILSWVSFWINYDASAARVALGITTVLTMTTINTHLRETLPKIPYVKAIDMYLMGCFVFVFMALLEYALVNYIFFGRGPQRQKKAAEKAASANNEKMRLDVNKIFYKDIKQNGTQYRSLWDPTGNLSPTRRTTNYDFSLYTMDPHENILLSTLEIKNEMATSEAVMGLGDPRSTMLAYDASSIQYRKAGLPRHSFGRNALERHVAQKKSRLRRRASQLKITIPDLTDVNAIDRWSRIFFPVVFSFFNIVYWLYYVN
T1 sequence (P18507 40-467 limits assumed): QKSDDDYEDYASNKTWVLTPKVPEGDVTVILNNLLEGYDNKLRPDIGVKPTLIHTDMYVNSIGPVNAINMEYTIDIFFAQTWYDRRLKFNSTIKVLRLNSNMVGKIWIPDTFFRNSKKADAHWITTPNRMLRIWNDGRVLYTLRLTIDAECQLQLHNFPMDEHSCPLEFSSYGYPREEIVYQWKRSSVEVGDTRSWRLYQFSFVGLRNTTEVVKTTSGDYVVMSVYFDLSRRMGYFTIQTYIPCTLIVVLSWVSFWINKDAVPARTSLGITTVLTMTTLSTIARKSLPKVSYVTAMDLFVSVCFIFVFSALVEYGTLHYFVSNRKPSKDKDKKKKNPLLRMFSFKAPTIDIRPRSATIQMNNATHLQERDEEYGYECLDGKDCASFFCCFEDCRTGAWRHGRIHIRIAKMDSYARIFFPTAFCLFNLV
The experiment in a line: Positive allosteric modulator activity: potentiation of EC20 GABA current in oocytes. The assay is classed as cell-based. The note with it: read-out: GABA α5 Functional Data (potentiation), @ 100 nM, reported as ranges. As for the experimental part: (B) Positive Allosteric Modulator Activity of Test Compounds on α5β2γ2 Subtype GABAAR
On day 1, 1 ng/32 nL of GABAA α5β2γ2 cDNA was injected into one oocyte. Test starts on day 2. The cDNA injected to the oocytes was a mix of alpha, beta and gamma, their ratio is 1:1:10 (by weight) and the total weight of the mixed 3 subunits to be injected in one oocyte was 1 ng in 32 nl volume. The injected oocytes can also be tested on day 3. In such case, the cDNA amount injected to the oocytes should be reduced by 20%.
Compounds of the present invention were tested using the following procedures.
• 1). 8 oocytes were placed in 8 chambers of OpusXpress and superfused with Modified Barth's Saline (MBS) at 3 mL/min. Glass electrodes back-filled with 3M KCl (0.5-3 megaohms) were used.
Control test (Diazepam or methyl 3,5-diphenylpyridazine-4-carboxylate) • 1). New oocytes was used to run new test. • 2). […] Oocytes were washed with MBS for 5-10 min. • 4). […] Itest was divided by IGABA to obtain potentiation (%). Test Compounds at Multiple Doses • 1). Repeat the above steps 1), 2) and 3) in the control test. • 2). […] Divide Itest by IGABA to obtain potentiation (%). • 3). Discard all tested oocytes, new oocytes were used and the above steps 1) and 2) were repeated to test second concentration of the same compound. Each oocyte was used for only one concentration test for a single test compound. The steps were repeated for other test compounds.
In the case of `COc1ccc2c(c1)-n1nnc(COc3ccccc3)c1Cc1c(C#N)ncn1-2` [Compound 224], the activation at 0.1 µM lay within 20 to 50%.

Consider `COc1ccc2c(c1)-n1nnc(COc3cccc(Br)c3)c1Cc1c(C#N)ncn1-2` [Compound 225], for which the activation at 0.1 µM is 20 to 50%. For `N#Cc1ncn2c1Cc1c(COc3ccccc3)nnn1-c1cc(Cl)ccc1-2` [Compound 226], the activation at 0.1 µM is 20 to 50%. With `N#Cc1ncn2c1Cc1c(COc3cccc(F)c3)nnn1-c1cc(Cl)ccc1-2` [Compound 227], the activation at 0.1 µM fell in the range of 5 to 20%.

As for `Fc1ccc2c(c1)-n1cnc(Br)c1Cc1c(Cc3ccccc3)nnn1-2` [Compound 229], the activation at 0.1 µM fell in the range of 5 to 20%.

In the case of `COc1ccc2c(c1)-c1nnc(COc3ccccc3)n1Cc1c(Br)ncn1-2` [Compound 232], the activation at 0.1 µM is 5 to 20%.

Take `COCc1nnc2n1Cc1c(-c3cc(C)no3)ncn1-c1ccc(Cl)cc1-2` [Compound 233]: the activation at 0.1 µM lay within 5 to 20%. For the molecule `C#Cc1ncn2c1Cn1c(COc3ccccc3)nnc1-c1cc(OC)ccc1-2` [Compound 236], the activation at 0.1 µM fell in the range of 5 to 20%. `COCc1nnc2n1Cc1c(C3=NCCO3)ncn1-c1ccc(Cl)cc1-2` [Compound 238]: the activation at 0.1 µM is 20 to 50%. On to `C#Cc1ncn2c1Cn1c(COc3cccnc3)nnc1-c1cc(OC)ccc1-2` [Compound 241], for which the activation at 0.1 µM lay in the range of 5 to 20%. Turning to `COCc1nnc2n1Cc1c(C3=NC(c4ccccc4)CO3)ncn1-c1ccc(Cl)cc1-2` (centres unmarked) [Compound 242], the activation at 0.1 µM fell in the range of 5 to 20%. With `COCc1nnc2n1Cc1c(C3=NC(C)CO3)ncn1-c1ccc(Cl)cc1-2` (centres unmarked) [Compound 243], the activation at 0.1 µM is 20 to 50%. For the molecule `COCc1nnc2n1Cc1c(-c3nc(C)co3)ncn1-c1ccc(Cl)cc1-2` [Compound 244], the activation at 0.1 µM fell in the range of 5 to 20%. In the case of `COCc1nnc2n1Cc1c(-c3nc(-c4ccccc4)co3)ncn1-c1ccc(Cl)cc1-2` [Compound 245], the activation at 0.1 µM was in the range of 5 to 20%. Regarding `COCc1nnc2n1Cc1c(-c3ncco3)ncn1-c1ccc(Cl)cc1-2` [Compound 249], the activation at 0.1 µM was 20 to 50%. With `COCc1nnc2n1Cc1c(C3=N[C@@H](c4ccccc4)CO3)ncn1-c1ccc(Cl)cc1-2` [Compound 264], the activation at 0.1 µM lay within 20 to 50%.

Regarding `CC(C)OCc1nnc2n1Cc1c(C3=N[C@H](c4ccccc4)CO3)ncn1-c1ccc(Cl)cc1-2` [Compound 268], the activation at 0.1 µM is 5 to 20%. With `CCOCc1nnc2n1Cc1c(C3=N[C@H](c4ccccc4)CO3)ncn1-c1ccc(Cl)cc1-2` [Compound 271] the figure was over 50%; with `COCc1nnc2n1Cc1c(C#Cc3ccccc3)ncn1-c1ccc(Cl)cc1-2` [Compound 285], 5 to 20%; with `COc1ccc2c(c1)-n1nncc1Cc1c(C3=N[C@H](c4ccccc4)CO3)ncn1-2` [Compound 290], 20 to 50%. With `COCc1nnc2n1Cc1c(C#Cc3ccccc3C)ncn1-c1ccc(Cl)cc1-2` [Compound 293] the figure was 20 to 50%. On to `C#Cc1ccc2c(c1)-c1nnc(COC)n1Cc1c(C3=N[C@@H](c4ccccc4)CO3)ncn1-2` [Compound 301], for which the activation at 0.1 µM lay in the range of 5 to 20%. With `C#Cc1ccc2c(c1)-c1nnc(COC)n1Cc1c(-c3nc(-c4ccccc4)co3)ncn1-2` [Compound 302] the figure was 5 to 20%; with `FC(F)(F)COCc1nnc2n1Cc1c(C3=N[C@@H](c4ccccc4)CO3)ncn1-c1ccc(Cl)cc1-2` [Compound 304], 5 to 20%; with `CCOC(=O)c1ncn2c1Cn1c(COCC(F)(F)F)nnc1-c1cc(Cl)ccc1-2` [Compound 308], 5 to 20%. With `Cc1ccccc1C#Cc1ncn2c1Cn1c(COC(C)C)nnc1-c1cc(Cl)ccc1-2` [Compound 310] the figure was 5 to 20%. `CCOCc1nnc2n1Cc1c(C#Cc3ccccc3C)ncn1-c1ccc(Cl)cc1-2` [Compound 311]: the activation at 0.1 µM lay in the range of 5 to 20%.

For the molecule `FC(F)(F)COCc1nnc2n1Cc1c(-c3nc(-c4ccccc4)co3)ncn1-c1ccc(Cl)cc1-2` [Compound 313], the activation at 0.1 µM lay within 20 to 50%. Regarding `COCc1nnc2n1Cc1c(C3=N[C@@H](c4ccccc4F)CO3)ncn1-c1ccc(Cl)cc1-2` [Compound 319], the activation at 0.1 µM was in the range of 20 to 50%. Turning to `COCc1nnc2n1Cc1c(C3=N[C@@H](c4ccc(F)cc4)CO3)ncn1-c1ccc(Cl)cc1-2` [Compound 320], the activation at 0.1 µM lay in the range of 20 to 50%. Regarding `COCc1nnc2n1Cc1c(-c3nc(-c4ccccc4F)co3)ncn1-c1ccc(Cl)cc1-2` [Compound 323], the activation at 0.1 µM lay within 20 to 50%. As to `COCc1nnc2n1Cc1c(-c3nc(-c4ccc(F)cc4)co3)ncn1-c1ccc(Cl)cc1-2` [Compound 324], the activation at 0.1 µM is 20 to 50%. With `CCOCc1nnc2n1Cc1c(C3=N[C@@H](c4ccc(F)cc4)CO3)ncn1-c1ccc(Cl)cc1-2` [Compound 325] the figure was 20 to 50%; with `CC(C)OCc1nnc2n1Cc1c(C3=N[C@@H](c4ccc(F)cc4)CO3)ncn1-c1ccc(Cl)cc1-2` [Compound 326], 20 to 50%; with `C#Cc1ncn2c1Cn1c(COC)nnc1-c1cc(OC)ccc1-2` [Compound 328, 5-ethynyl-15-methoxy-9-(methoxymethyl)-2,4,8,10,11-pentaazatetracyclo[11.4.0.0^2,^60.0^8,^12]heptadeca-1(17),3,5,9,11,13,15-heptaene], 5 to 20%. On to `COCc1nnc2n1Cc1c(C3=N[C@@H](c4ccccc4C)CO3)ncn1-c1ccc(Cl)cc1-2` [Compound 330], for which the activation at 0.1 µM fell in the range of 20 to 50%.

Turning to `COCc1nnc2n1Cc1c(C3=N[C@@H](c4ccccc4OC)CO3)ncn1-c1ccc(Cl)cc1-2` [Compound 331], the activation at 0.1 µM was 5 to 20%.

On to `COCc1nnc2n1Cc1c(C3=N[C@@H](c4ccc(OC)cc4)CO3)ncn1-c1ccc(Cl)cc1-2` [Compound 332], for which the activation at 0.1 µM was in the range of 5 to 20%.

Turning to `COCc1nnc2n1Cc1c(C3=N[C@@H](c4cccc(OC)c4)CO3)ncn1-c1ccc(Cl)cc1-2` [Compound 333], the activation at 0.1 µM is 5 to 20%. With `COCc1nnc2n1Cc1c(C3=N[C@@H](c4ccc(Cl)cc4)CO3)ncn1-c1ccc(Cl)cc1-2` [Compound 334] the figure was 20 to 50%; with `COCc1nnc2n1Cc1c(C3=N[C@@H](c4cc(F)ccc4F)CO3)ncn1-c1ccc(Cl)cc1-2` [Compound 335], 5 to 20%. For `COCc1nnc2n1Cc1c(C3=N[C@@H](c4ccc(C(F)(F)F)cc4)CO3)ncn1-c1ccc(Cl)cc1-2` [Compound 337], the activation at 0.1 µM was 20 to 50%. Consider `CC#Cc1ncn2c1Cn1c(COC)nnc1-c1cc(Cl)ccc1-2` [Compound 339], for which the activation at 0.1 µM was in the range of 20 to 50%. With `COCc1nnc2n1Cc1c(C3=N[C@H](c4ccccc4)CO3)ncn1-c1ccc(OC)cc1-2` [Compound 340] the figure was 20 to 50%; with `CCOCc1nnc2n1Cc1c(-c3ncco3)ncn1-c1ccc(Cl)cc1-2` [Compound 341], 5 to 20%; with `COCc1nnc2n1Cc1c(C3=N[C@@H](c4ccccc4)CO3)ncn1-c1ccc(OC)cc1-2` [Compound 343], 20 to 50%. Take `CCC#Cc1ncn2c1Cn1c(COC)nnc1-c1cc(Cl)ccc1-2` [Compound 345]: the activation at 0.1 µM lay within 20 to 50%.
